Bounds are passed on as bounds.

Chain of USP30 (Q70CQ3 57-517): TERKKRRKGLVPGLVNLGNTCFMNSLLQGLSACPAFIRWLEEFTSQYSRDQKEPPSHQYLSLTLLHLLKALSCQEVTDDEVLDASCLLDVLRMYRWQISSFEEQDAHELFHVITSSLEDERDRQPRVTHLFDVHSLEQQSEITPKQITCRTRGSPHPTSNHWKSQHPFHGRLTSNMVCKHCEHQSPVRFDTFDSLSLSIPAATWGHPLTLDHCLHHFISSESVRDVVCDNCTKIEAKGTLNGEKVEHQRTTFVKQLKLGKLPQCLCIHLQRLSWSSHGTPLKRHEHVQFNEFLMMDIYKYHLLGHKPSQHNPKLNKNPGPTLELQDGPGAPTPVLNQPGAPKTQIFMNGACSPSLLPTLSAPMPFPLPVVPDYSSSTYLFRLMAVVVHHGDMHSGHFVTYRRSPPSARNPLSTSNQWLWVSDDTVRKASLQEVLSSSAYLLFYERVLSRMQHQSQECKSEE

The experiment has as its target USP30 (Homo sapiens (Human), UniProt Q70CQ3). The experiment in a line: USP30 biochemical FP or FI IC50 assay. The following applies: read-out: IC50 range. The protocol: USP30 Biochemical IC50 Assay
Dilution plates were prepared at 21 times the final concentration (2100 μM for a final concentration of 100 μM) in 50% DMSO in a 96-well polypropylene V-bottom plate (Greiner #651201). A typical 8-point dilution series would be 100, 30, 10, 3, 1, 0.3, 0.1, 0.03 μM final. Reactions were performed in duplicate in black 384 well plates (small volume, Greiner 784076) in a final reaction volume of 21 μl. Either 1 μl of 50% DMSO or diluted compound was added to the plate. USP30 was diluted in reaction buffer (40 mM Tris, pH 7.5, 0.005% Tween 20, 0.5 mg/ml BSA, 5 mM—beta-mercaptoethanol) to the equivalent of 0.05 μl/well and 10 μl of diluted USP30 was added to the compound. Enzyme and compound were incubated for 30 min at room temp. Reactions were initiated by the addition of 50 nM of TAMRA labelled peptide linked to ubiquitin via an iso-peptide bond as fluorescence polarisation substrate. Reactions were read immediately after addition of substrate and following a 2 hr incubation at room temperature. Readings were performed on a Pherastar Plus (BMG Labtech). λ Excitation 540 nm; λ Emission 590 nm.
USP30 Biochemical Fluorescence Intensity IC50 Assay
Dilution plates were prepared at 21 times the final concentration (2100 μM for a final concentration of 100 μM) in 50% DMSO in a 96-well polypropylene V-bottom plate (Greiner #651201). A typical 8-point dilution series would be 100, 30, 10, 3, 1, 0.3, 0.1, 0.03 μM final. Reactions were performed in duplicate in black 384 well plates (small volume, Greiner 784076) in a final reaction volume of 21 μl.
Either 1 μl of 50% DMSO or diluted compound was added to the plate. USP30 was diluted in reaction buffer (40 mM Tris, pH 7.5, 0.005% Tween 20, 0.5 mg/ml BSA, 5 mM—beta-mercaptoethanol) to the equivalent of 0.001 μl/well and 10 μl of diluted USP30 was added to the compound. Enzyme and compound were incubated for 30 min at room temp. Reactions were initiated by the addition of Ubiquitin-Rhodamine 110 (U-555; Boston Biochem) at a final concentration of 100 nM. Reactions were read immediately after addition of substrate and following a 2 h incubation at room temperature. Readings were performed on a Pherastar Plus (BMG Labtech). λ Excitation 487 nm; λ Emission 535 nm.
`N#CN1C[C@H]2CCN(C(=O)Nc3ccc(-c4ccccc4)cn3)[C@H]2C1` [Example 202, (3aR,6aR)-5-cyano-N-(5-phenyl-pyridin-2-yl)hexahydropyrrolo[3,4-b]pyrrole-1(2H)-carboxamide]: the IC50 is < 100 nM.
For `N#CN1CC[C@@H](NC(=O)N2CC(c3ccnc(-c4ccccc4)n3)C2)C1` [Example 236, (R)-N-(1-cyanopyrrolidin-3-yl)-3-(2-phenylpyrimidin-4-yl)azetidine-1-carboxamide] the value was 100 to 1000 nM; for `COc1cc(C(=O)N2CC[C@@H]3CN(C#N)C[C@@H]32)ccc1-c1cnn(C)c1` (racemic) [Example 60, rac-(3aR,6aR)-1-(3-methoxy-4-(1-methyl-1H-pyrazol-4-yl)benzoyl)hexahydropyrrolo[3,4-b]pyrrole-5(1H)-carbonitrile], 1000 to 10000 nM; for `Cc1cc(-c2ccn3c(C(=O)N(C)[C@@H]4CCN(C#N)C4)cnc3c2)ccn1` [Example 161, (R)-N-(1-cyanopyrrolidin-3-yl)-N-methyl-7-(2-methylpyridin-4-yl)imidazo[1,2-a]pyridine-3-carboxamide], 100 to 1000 nM.
The result for `CN(C(=O)c1cn2cc(-c3cnn(C)c3)ccc2n1)[C@@H]1CCN(C#N)C1` [Example 156, (R)-N-(1-cyanopyrrolidin-3-yl)-N-methyl-6-(1-methyl-1H-pyrazol-4-yl)imidazo[, 2-a]pyridine-2-carboxamide] reads 100 to 1000 nM; that for `COCCN(C(=O)Nc1ccc(C(F)(F)F)cc1)C1CCN(C#N)C1` (stereo not drawn) [Example 205, 1-(1-cyanopyrrolidin-3-yl)-1-(2-methoxyethyl)-3-(4-(trifluoromethyl)phenyl)urea], 100 to 1000 nM.
The result for `CN(C(=O)N1CC(c2ccccc2)C1)[C@@H]1CCN(C#N)C1` [Example 189, (R)-N-(1-cyanopyrrolidin-3-yl)-N-methyl-3-phenylazetidine-1-carboxamide] reads 100 to 1000 nM; that for `N#CN1CCC(NC(=O)c2nc(-c3ccccc3)cs2)C1` (racemic) [Example 7, N-(1-cyanopyrrolidin-3-yl)-4-phenylthiazole-2-carboxamide], 100 to 1000 nM; that for `N#CN1CC[C@@H](NC(=O)N2CCCN(Cc3ccccc3)CC2)C1` [Example 138, (R)-4-benzyl-N-(1-cyanopyrrolidin-3-yl)-1,4-diazepane-1-carboxamide], 100 to 1000 nM.
In the case of `COc1cc(C(=O)N[C@@H]2CCN(C#N)C2)ccc1-c1ccncc1Cl` [Example 39, (R)-4-(3-chloropyridin-4-yl)-N-(1-cyanopyrrolidin-3-yl)-3-methoxybenzamide], the IC50 was < 100 nM.
For `N#CN1CC[C@H](NC(=O)c2ccc(-c3ccncc3)cc2)C1` [Example 47, (S)-N-(1-cyanopyrrolidin-3-yl)-4-(pyridin-4-yl)benzamide] the value was 1000 to 10000 nM.
The result for `N#CN1CC[C@@H](NC(=O)c2ccc(-c3ccncc3Cl)cc2)C1` [Example 38, (R)-4-(3-chloropyridin-4-yl)-N-(1-cyanopyrrolidin-3-yl)benzamide] reads < 100 nM.
The result for `CN(C(=O)Nc1ccc(C(F)(F)F)cc1)C1CCN(C#N)C1` (stereo not drawn) [Example 261, 1-(1-cyanopyrrolidin-3-yl)-1-methyl-3-(4-(trifluoromethyl)phenyl)urea] reads 100 to 1000 nM.
Turning to `CN(Cc1ccccc1)c1ccc(C(=O)NC2CCN(C#N)C2)cn1` (stereo not drawn) [Example 4, 6-(benzyl(methyl)amino)-N-(1-cyanopyrrolidin-3-yl)nicotinamide], the IC50 lay in the range of 100 to 1000 nM.
For `N#CN1CC[C@@H](NC(=O)c2ccc(-c3ccc4nccn4c3)cc2F)C1` [Example 118, (R)-N-(1-cyanopyrrolidin-3-yl)-2-fluoro-4-(imidazo[1,2-a]pyridin-6-yl)benzamide] the value was < 100 nM.
For `Cc1nc(-c2ccc(C(=O)N[C@@H]3CCN(C#N)C3)nc2)cc(C(F)(F)F)n1` [Example 180, (R)-N-(1-cyanopyrrolidin-3-yl)-5-(2-methyl-6-(trifluoromethyl)pyrimidin-4-yl)picolinamide] the value was 100 to 1000 nM; for `N#CN1CCC(NC(=O)c2ccc(N3CCC(C(N)=O)CC3)nc2)C1` (racemic) [Example 18, 6-(4-carbamoylpiperidin-1-yl)-N-(1-cyanopyrrolidin-3-yl)nicotinamide], 1000 to 10000 nM.
The result for `N#CN1CC[C@@H](NC(=O)N2CCc3c([nH]c4ccccc34)C2)C1` [Example 139, (R)-N-(1-cyanopyrrolidin-3-yl)-1,3,4,9-tetrahydro-2H-pyrido[3,4-b]indole-2-carboxamide] reads 100 to 1000 nM.
For `Cc1nn(C)cc1-c1ccc2nc(C(=O)N[C@@H]3CCN(C#N)C3)cn2c1` [Example 125, (R)-N-(1-cyanopyrrolidin-3-yl)-6-(1,3-dimethyl-1H-pyrazol-4-yl)imidazo[1,2-a]pyridine-2-carboxamide], the IC50 was 100 to 1000 nM.
The result for `Cn1cc(-c2cc(C(=O)N3CC[C@@H]4CN(C#N)C[C@@H]43)ccc2F)cn1` (racemic) [Example 58, rac-(3aR,6aR)-1-(4-fluoro-3-(1-methyl-1H-pyrazol-4-yl)benzoyl)hexahydropyrrolo[3,4-b]pyrrole-5(1H)-carbonitrile] reads 100 to 1000 nM; that for `CC(C)C(=O)N(C)c1ccnc(C(=O)N[C@@H]2CCN(C#N)C2)c1` [Example 215, (R)-N-(1-cyanopyrrolidin-3-yl)-4-(N-methylisobutyramido)picolinamide], 100 to 1000 nM; that for `Cn1cc(-c2ccc3nc(C(=O)N[C@@H]4CCN(C#N)C4)[nH]c3c2)cn1` [Example 83, (R)-N-(1-cyanopyrrolidin-3-yl)-6-(1-methyl-1H-pyrazol-4-yl)-1H-benzo[d]imidazole-2-carboxamide], 100 to 1000 nM.
The result for `N#CN1CCC(NC(=O)c2ccnc(N3CCc4ccccc4C3)c2)C1` (stereo not drawn) [Example 27, N-(1-cyanopyrrolidin-3-yl)-2-(3,4-dihydroisoquinolin-2(1H)-yl)isonicotinamide] reads 100 to 1000 nM; that for `N#CN1C[C@H]2CCN(C(=O)c3ccc(N4CCOCC4)c(Cl)c3)[C@H]2C1` [Example 268, (3aR,6aR)-1-(3-chloro-4-morpholinobenzoyl)hexahydro-pyrrolo[3,4-b]pyrrole-5(1H)-carbonitrile], 100 to 1000 nM; that for `CO[C@@H]1CCN(c2ccc(C(=O)N[C@@H]3CCN(C#N)C3)c(F)c2)C1` [Example 146, N-((R)-1-cyanopyrrolidin-3-yl)-2-fluoro-4-((R)-3-methoxypyrrolidin-1-yl)benzamide], 100 to 1000 nM.
The result for `COc1ccccc1-c1ccc(C(=O)NC2CCN(C#N)C2)cc1` (racemic) [Example 14, N-(1-cyanopyrrolidin-3-yl)-2′-methoxy-[1,1′-biphenyl]-4-carboxamide] reads < 100 nM.
For `N#CN1CC[C@@H](NC(=O)N2CCOC(c3ccccc3)C2)C1` (stereo partly drawn) [Example 136, N-((R)-1-cyanopyrrolidin-3-yl)-2-phenylmorpholine-4-carboxamide], the IC50 lay within 100 to 1000 nM.
`N#Cc1cccc(-c2ccn3c(C(=O)N[C@@H]4CCN(C#N)C4)cnc3c2)c1` [Example 160, (R)-7-(3-cyanophenyl)-N-(1-cyanopyrrolidin-3-yl)imidazo[1,2-a]pyridine-3-carboxamide]: the IC50 is < 100 nM.
`N#CN1CC[C@@H](NC(=O)c2cc(-c3cccnc3)[nH]n2)C1` [Example 103, (R)-N-(1-cyanopyrrolidin-3-yl)-5-(pyridin-3-yl)-1H-pyrazole-3-carboxamide]: the IC50 was 100 to 1000 nM.
For `Cc1ccc(-c2cc(C(=O)N[C@@H]3CCN(C#N)C3)on2)cc1C` [Example 271, (R)-N-(1-cyanopyrrolidin-3-yl)-3-(3,4-dimethylphenyl)isoxazole-5-carboxamide] the value was < 100 nM; for `Cn1cc(-c2ccc(NC(=O)N3CC[C@@H]4CN(C#N)C[C@@H]43)c(F)c2)cn1` [Example 245, (3aR,6aR)-5-cyano-N-(2-fluoro-4-(1-methyl-1H-pyrazol-4-yl)phenyl)hexahydropyrrolo[3,4-b]pyrrole-1(2H)-carboxamide], 100 to 1000 nM; for `Cc1cc(-c2ccc(C(=O)N[C@@H]3CCN(C#N)C3)c(F)c2)nc(C)n1` [Example 181, (R)-N-(1-cyanopyrrolidin-3-yl)-4-(2,6-dimethylpyrimidin-4-yl)-2-fluorobenzamide], < 100 nM.
The result for `C[C@@H]1CN(C#N)C[C@H]1NC(=O)c1ncc(-c2ccccc2)s1` [Example 70, N-((3S,4R)-1-cyano-4-methylpyrrolidin-3-yl)-5-phenylthiazole-2-carboxamide] reads < 100 nM.

(Values after US10343992B2, “1-cyano-pyrrolidine compounds as USP30 inhibitors” (MISSION THERAPEUTICS LIMITED, priority 2015, dated 2019).)
